Patent US20210000955A1, “PHOTODYNAMICALLY ACTIVE ORGANOSILICA NANOPARTICLES AND MEDICAL USES THEREOF” (NANYANG TECHNOLOGICAL UNIVERSITY, priority 2017, published 2021)

Tests used:
[1] = obtained online; cited from earlier work
SKMEL-28 cells = test: In vitro oxidative stress detection; format: cell-based, Human; conditions: positive control, 1 μM, 15 minutes
Protocol: The in vitro oxidative stress was analyzed using the Image-IT® LIVE Green Reactive Oxygen Species Detection Kit from Thermo Fisher according to manufacturer's instructions. SKMEL-28 cells were seeded in a 12-well plate. PcNP was added at a final concentration of 25 μg/mL. After incubation for 12 hours, the cells were labelled with carboxy-H2DCFDA for 10 minutes and washed with PBS. The cells corresponding to the PcNP+hv treatment were irradiated with 730 nm, 0.75 W/cm^2 laser for 20 minutes. A positive control using common ROS production inducer TBHP was added to a final concentration of 1 μM and incubated for 15 minutes. After the treatment, the cell nuclei were labeled with Hoechst 33342 (1 μM). Coverslips were then washed with PBS, fixed and mounted onto microscopy glass slides for imaging by CLSM. Carboxy-H2DCFDA λex/em: 488/529 nm, Hoechst 33342 λex/em: 350/461 nm.

[2] = Topical penetration of porcine skin, IVIS fluorescence; format: in vitro ADME; conditions: regardless of the microneedle treatment
Protocol: Fresh full-thickness porcine skin was obtained from a local wholesaler and cut into 1 cm by 1 cm pieces. The subcutaneous fats were gently stripped from the porcine skin. Any remaining skin was kept frozen at −20° C. and used as soon as possible. A pyramidal stainless steel microneedle patch consisting of 100 needles in a 10×10 array with a height of ˜500 μm, a tip radius of 5 μm, a pitch of ˜700 μm and a base width of ˜300 μm was obtained from Micropoint Technologies Pte Ltd (Singapore). […] PcNP solution at 20 mg/mL concentration was compared against free Pc (equivalent to the concentration of Pc in PcNP at 20 mg/mL). The penetration of PcNP was tested after two durations: 10 minutes and 1 hour. The penetration was conducted with and without the help of the microneedle patch. Briefly, if required, the skin was pierced with the microneedle patch under a force of about 4 N for 10 seconds before its removal. […] The fluorescence intensity of the adsorbed Pc was measured using an IVIS SpectrumCT Pre-clinical in Vivo Imaging System (Perkin Elmer), where λex/em is 640/700-760 nm. […] To calculate the percentage of PcNP that penetrated into the skin, the intensity reading for each skin was normalized against that of PBS and PcNP positive control. In the case of free Pc penetration, this percentage was calculated by normalizing the readings against that of PBS and free Pc positive control.

CN(C)c1ccc2nc3ccc(=[N+](C)C)cc-3sc2c1 [MB, methylene blue]
singlet oxygen quantum yield ΦΔ(MB), reference value [1]: 0.52

CC(C)(C)OO [TBHP, tert-Butyl hydroperoxide]
cells oxidatively stressed (SKMEL-28 cells): about 74%

c1ccc2c(c1)-c1nc-2nc2[nH]c(nc3nc(nc4[nH]c(n1)c1ccccc41)-c1ccccc1-3)c1ccccc21 [free Pc, Phthalocyanine]
skin penetration [2]: minimal skin penetration
